Source: ChEMBL document CHEMBL4184307, “Identification of caffeoylquinic acid derivatives as natural protein tyrosine phosphatase 1B inhibitors from Artemisia princeps” (Bioorg Med Chem Lett, 2018)

Columns and labels:
[1] = target: T1, Tyrosine-protein phosphatase non-receptor type 1 (Homo sapiens) (UniProt P18031); assay: (§1) Inhibition of PTP1B (unknown origin)
T1 sequence (whole entry): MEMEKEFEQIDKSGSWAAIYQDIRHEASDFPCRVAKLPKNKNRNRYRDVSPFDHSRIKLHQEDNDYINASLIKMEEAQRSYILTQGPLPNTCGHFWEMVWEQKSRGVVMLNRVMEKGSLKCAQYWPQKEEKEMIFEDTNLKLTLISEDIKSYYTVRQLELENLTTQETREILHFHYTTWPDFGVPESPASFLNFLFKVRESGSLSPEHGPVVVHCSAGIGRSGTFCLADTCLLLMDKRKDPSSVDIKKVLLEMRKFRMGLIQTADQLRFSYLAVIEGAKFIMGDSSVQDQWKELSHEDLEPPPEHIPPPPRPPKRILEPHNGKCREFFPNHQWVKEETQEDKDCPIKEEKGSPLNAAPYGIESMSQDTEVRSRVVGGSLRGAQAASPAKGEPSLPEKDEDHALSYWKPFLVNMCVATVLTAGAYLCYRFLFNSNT

[2] = target: T2, Tyrosine-protein phosphatase non-receptor type 1 (Homo sapiens, UniProt P18031); assay: as §1
T2 sequence (P18031 whole entry): T1 sequence (whole entry)

[3] = target: T1, Tyrosine-protein phosphatase non-receptor type 1 (Homo sapiens); assay: Inhibition of PTP1B (unknown origin) at 100 uM relative to control
[4] = target: T3, Tyrosine-protein phosphatase non-receptor type 2 (Homo sapiens) (UniProt P17706); assay: Inhibition of TCPTP (unknown origin) at 100 uM relative to control
T3 sequence (whole entry): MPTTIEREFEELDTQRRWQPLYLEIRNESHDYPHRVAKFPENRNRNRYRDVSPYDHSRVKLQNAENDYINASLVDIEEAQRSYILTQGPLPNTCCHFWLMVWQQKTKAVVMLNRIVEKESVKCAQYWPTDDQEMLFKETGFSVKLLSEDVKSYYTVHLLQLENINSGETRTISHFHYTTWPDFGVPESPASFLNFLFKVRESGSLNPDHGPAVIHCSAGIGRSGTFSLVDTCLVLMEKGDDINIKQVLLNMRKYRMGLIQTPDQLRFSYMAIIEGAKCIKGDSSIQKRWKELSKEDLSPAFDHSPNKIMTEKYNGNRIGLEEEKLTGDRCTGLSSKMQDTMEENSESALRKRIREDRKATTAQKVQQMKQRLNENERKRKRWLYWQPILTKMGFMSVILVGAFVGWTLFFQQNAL

[5] = target: Dual specificity protein phosphatase 3 (Homo sapiens) (UniProt P51452); assay: Inhibition of VHR (unknown origin) at 100 uM relative to control
[6] = target: Tyrosine-protein phosphatase non-receptor type 6 (Homo sapiens) (UniProt P29350); assay: Inhibition of SHP1 (unknown origin) at 100 uM relative to control
[7] = target: T4, Tyrosine-protein phosphatase non-receptor type 11 (Homo sapiens) (UniProt Q06124); assay: Inhibition of SHP2 (unknown origin) at 100 uM relative to control
T4 sequence (whole entry): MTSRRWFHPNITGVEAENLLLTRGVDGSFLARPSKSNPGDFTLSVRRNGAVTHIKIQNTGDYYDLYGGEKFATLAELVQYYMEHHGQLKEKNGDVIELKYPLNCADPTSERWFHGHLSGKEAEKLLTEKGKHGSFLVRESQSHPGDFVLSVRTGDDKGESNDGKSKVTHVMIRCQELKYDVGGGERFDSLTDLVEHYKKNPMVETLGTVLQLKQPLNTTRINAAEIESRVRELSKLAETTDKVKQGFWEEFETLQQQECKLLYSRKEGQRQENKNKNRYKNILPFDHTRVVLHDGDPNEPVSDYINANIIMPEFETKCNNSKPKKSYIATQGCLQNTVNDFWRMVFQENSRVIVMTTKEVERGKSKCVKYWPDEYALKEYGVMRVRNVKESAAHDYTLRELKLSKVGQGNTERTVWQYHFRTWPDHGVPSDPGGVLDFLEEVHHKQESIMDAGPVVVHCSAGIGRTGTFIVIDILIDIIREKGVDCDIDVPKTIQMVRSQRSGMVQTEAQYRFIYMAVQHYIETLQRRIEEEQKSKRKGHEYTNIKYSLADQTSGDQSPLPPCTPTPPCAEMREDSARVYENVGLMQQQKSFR

[8] = target: T5, Tyrosine-protein phosphatase non-receptor type 2 (Homo sapiens, UniProt P17706); assay: Inhibition of TCPTP (unknown origin)
T5 sequence (P17706 whole entry): T3 sequence (whole entry)

Sequence of Tyrosine-protein phosphatase non-receptor type 6 (Homo sapiens) (P29350 whole entry): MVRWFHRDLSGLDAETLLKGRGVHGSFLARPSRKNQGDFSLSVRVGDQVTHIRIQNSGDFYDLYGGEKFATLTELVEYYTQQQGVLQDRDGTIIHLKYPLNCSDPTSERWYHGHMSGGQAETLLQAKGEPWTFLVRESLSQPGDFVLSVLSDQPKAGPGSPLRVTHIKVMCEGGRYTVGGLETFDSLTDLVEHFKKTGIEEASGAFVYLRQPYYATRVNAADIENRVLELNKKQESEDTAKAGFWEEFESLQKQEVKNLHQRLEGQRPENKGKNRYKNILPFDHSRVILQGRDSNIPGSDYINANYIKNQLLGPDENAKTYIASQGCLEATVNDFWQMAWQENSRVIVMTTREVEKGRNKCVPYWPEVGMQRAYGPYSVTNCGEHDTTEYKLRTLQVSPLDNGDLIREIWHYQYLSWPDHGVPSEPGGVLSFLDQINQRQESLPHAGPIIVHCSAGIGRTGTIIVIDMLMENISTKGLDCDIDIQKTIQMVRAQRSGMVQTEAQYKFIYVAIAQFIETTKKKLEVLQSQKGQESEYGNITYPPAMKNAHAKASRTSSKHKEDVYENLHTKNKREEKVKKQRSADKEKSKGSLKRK
Sequence of Dual specificity protein phosphatase 3 (Homo sapiens) (P51452 whole entry, looked up): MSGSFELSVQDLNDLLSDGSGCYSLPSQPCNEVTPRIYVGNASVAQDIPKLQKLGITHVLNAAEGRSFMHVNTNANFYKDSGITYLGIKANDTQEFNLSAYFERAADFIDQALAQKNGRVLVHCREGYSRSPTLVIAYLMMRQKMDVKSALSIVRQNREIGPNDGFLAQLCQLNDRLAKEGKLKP

| SMILES | inhibition [1] | IC50 [2] | other results |
| --- | --- | --- | --- |
| O=C(/C=C/c1ccc(O)c(O)c1)O[C@H]1[C@H](O)C[C@](O)(C(=O)O)C[C@H]1OC(=O)/C=C/c1ccc(O)c(O)c1 | Dose-dependent effect | 59.4 µM | – |
| COC(=O)[C@]1(O)C[C@@H](OC(=O)/C=C/c2ccc(O)c(O)c2)[C@@H](O)[C@H](OC(=O)/C=C/c2ccc(O)c(O)c2)C1 | Dose-dependent effect | 42.7 µM | – |
| O=C(/C=C/c1ccc(O)c(O)c1)O[C@H]1[C@H](O)C[C@](O)(C(=O)O)C[C@H]1O | Dose-dependent effect | 43.9 µM | – |
| COc1cc(/C=C/C(=O)O[C@H]2[C@H](O)C[C@](O)(C(=O)O)C[C@H]2OC(=O)/C=C/c2ccc(O)c(OC)c2)ccc1O | Dose-dependent effect | 67.1 µM | – |
| O=C(/C=C/c1ccc(O)c(O)c1)O[C@@H]1C[C@](O)(C(=O)O)C[C@@H](OC(=O)/C=C/c2ccc(O)c(O)c2)[C@H]1O | Dose-dependent effect | 37.9 µM | – |
| O=C(/C=C/c1ccc(O)c(O)c1)O[C@@H]1C[C@](OC(=O)/C=C/c2ccc(O)c(O)c2)(C(=O)O)C[C@@H](O)[C@H]1O [1,5-O-TRANS-DICAFFEOYLQUINIC ACID] | Dose-dependent effect | 35.4 µM | – |
| O=C(/C=C/c1ccc(O)c(O)c1)O[C@@H]1C[C@](O)(C(=O)O)C[C@@H](O)[C@H]1O [CHLOROGENIC ACID] | Dose-dependent effect | – | inhibition [3]: 83.1%; inhibition [4]: 65.6%; inhibition [5]: 30.5%; inhibition [6]: 32%; inhibition [7]: 28.4%; IC50 [8]: 77.9 µM |
| COC(=O)[C@]1(O)C[C@@H](O)[C@@H](OC(=O)/C=C/c2ccc(O)c(O)c2)[C@H](OC(=O)/C=C/c2ccc(O)c(O)c2)C1 | Dose-dependent effect | 56 µM | – |
| O=C(/C=C/c1ccc(O)c(O)c1)O[C@@H]1C[C@@](O)(C(=O)O)C[C@@H](O)[C@@H]1O | Dose-dependent effect | – | – |
| O=C(/C=C/c1ccc(O)c(O)c1)O[C@@H]1[C@H](O)C[C@@](O)(C(=O)O)C[C@H]1OC(=O)/C=C/c1ccc(O)c(O)c1 | Dose-dependent effect | 41.5 µM | – |
